Measured values reported in patent publication US7531565B2, “Imidazolidin-2-one derivatives as selective androgen receptor modulators (SARMS)” (Janssen Pharmaceutica, N.V., priority 2004, dated 2009).

How the values were obtained:
[1] = biological target: T1, androgen receptor (Rattus norvegicus, UniProt P15207); assay: COS-7 whole-cell androgen receptor binding assay, adenovirus transduction; design: expressed in transfected cells; settings: for % Inhibition @ 3 μM: 3 μM (3000 nM), COS-7 cells, [3H]R1881, AdEasy+rAR; for inhibition at 3 µM: read-out: % Inhibition @ 3 μM
T1 sequence (P15207 1-902): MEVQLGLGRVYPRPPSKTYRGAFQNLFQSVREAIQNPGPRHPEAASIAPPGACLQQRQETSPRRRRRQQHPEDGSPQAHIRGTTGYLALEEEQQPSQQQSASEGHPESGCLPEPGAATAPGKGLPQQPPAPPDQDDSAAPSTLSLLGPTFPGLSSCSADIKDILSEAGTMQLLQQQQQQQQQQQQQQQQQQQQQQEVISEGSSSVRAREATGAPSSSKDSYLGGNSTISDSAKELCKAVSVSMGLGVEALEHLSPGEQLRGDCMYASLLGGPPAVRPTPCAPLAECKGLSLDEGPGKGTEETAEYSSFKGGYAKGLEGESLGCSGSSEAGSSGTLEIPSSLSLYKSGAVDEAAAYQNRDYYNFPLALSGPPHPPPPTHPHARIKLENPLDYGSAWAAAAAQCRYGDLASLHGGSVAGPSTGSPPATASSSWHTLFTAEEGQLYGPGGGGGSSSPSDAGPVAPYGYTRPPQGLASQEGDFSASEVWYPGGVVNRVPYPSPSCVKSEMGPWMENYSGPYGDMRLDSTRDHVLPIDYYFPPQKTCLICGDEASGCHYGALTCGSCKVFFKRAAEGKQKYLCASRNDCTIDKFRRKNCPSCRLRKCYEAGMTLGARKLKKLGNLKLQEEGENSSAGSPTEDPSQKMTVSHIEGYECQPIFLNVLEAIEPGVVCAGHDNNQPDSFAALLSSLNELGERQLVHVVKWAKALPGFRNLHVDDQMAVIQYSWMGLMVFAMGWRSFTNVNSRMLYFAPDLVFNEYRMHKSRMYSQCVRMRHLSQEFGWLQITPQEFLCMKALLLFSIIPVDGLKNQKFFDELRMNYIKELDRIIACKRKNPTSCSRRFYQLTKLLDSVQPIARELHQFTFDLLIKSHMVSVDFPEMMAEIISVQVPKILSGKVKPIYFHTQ
Description: COS-7 cells were plated in 96-well plates at 20,000 cells per well, in a solution of DMEM/F12 (GIBCO) containing 10% (v/v) charcoal-treated fetal bovine serum (Hyclone) and lacking phenol red. The cells were then incubated overnight at 37° C. in 5% (v/v) humidified CO2.
Test compound solutions were prepared by diluting the test compound in 100% (v/v) DMSO, if necessary. Each dilution yielded a solution which was 625× the final desired test concentration.
Next, 1 mL of DMEM/F12 lacking phenol red was pipetted into each of the wells of a 2-mL 96-well assay block. Then 4 μL of the 625× test compound dilutions were pipetted into each well of the assay block. The wells were carefully mixed by pipette.
In a 15 mL or 50 mL sterile centrifuge tube, a 2.5 nM dilution of tritiated methyl-trienolone in DMEM/F12 lacking phenol red ([^3H]R1881; Perkin-Elmer) was prepared.
In a 15 mL or 50 mL sterile centrifuge tube, a dilution in DMEM/F12 of the adenovirus AdEasy+rAR at a moi of 1:50 per well was prepared.
The medium was removed from the 96-well plates by inversion and the plates dried very briefly, inverted, on a sterile towel. As soon as possible after medium removal, 40 μL of the diluted test compound was added to each well, in duplicate. To each well was then added 40 μL of the 2.5 nM [^3H]R1881 and 20 μL of the diluted adenovirus. The plates were then incubated for 48 hours at 37° C. in 5% (v/v) humidified CO2.
The medium was removed from the above incubated plates by inversion and dried. Each well was then washed with 0.35 mL of 1×PBS. The PBS was then removed from the plates by inversion and the plates dried.
To each well was then added 50 μL of 0.5% (v/v) Triton X-100 (Sigma) in 1×PBS and the plates placed on a rotary shaker for 5 min. The contents of each well were then transferred to an OptiPlate-96 (Packard) scintillation plate. To each well was then added 0.2 mL of Microscint-20 (Packard) and the wells counted on a TopCount (Packard).
Percent inhibition was determined by testing dilutions of the test compound (usually duplicates of 10 μM) in the binding assay. Counts per well were measured and percents of inhibition determined. Androgen receptor binding IC50s were determined by testing serial dilutions of the test compound (usually duplicate ten half-log dilutions starting at 10 μM) in the binding assay. Counts per well were measured and IC50s determined by linear regression.
Representative compounds of the present invention were tested for binding to the androgen receptor according to the procedure described above with results as listed in Table C. Unless otherwise noted, COS binding % inhibition was determined using a concentration of 3000 nM. For compounds tested more than once, each result is listed separately in Table 3 below.

[2] = system: castrated male Sprague Dawley rats; assay: Ventral prostate and seminal vesicle weight in vivo assay; design: species or system rat; key: A test compound was said to be “active” if the non weight adjusted prostate weight was ≦60 mg or ≧84 mg; they are listed herein as “inactive” as they did not meet the specified criteria defined above; settings: immature castrated rats, once daily for five days, usually orally 40 mg/kg, with testosterone propionate 2 mg/kg s.c.
Description: Immature (approximately 50 g) castrated male Sprague Dawley rats (Charles River) were treated once daily for five days with test compound (usually given orally at 40 mg/kg in a volume of 0.3 mL, in 30% cyclodextrin or 0.5% methylcellulose vehicle) and with testosterone propionate (given subcutaneously by injection at the nape of the neck at 2 mg/kg, in a volume of 0.1 mL in sesame oil). On the sixth day, the rats were euthanized by asphyxiation in carbon dioxide. Ventral prosatates and seminal vesicles were removed and their wet weights determined. Test compound activity was determined as the percent inhibition of testosterone-enhanced tissue weights, with a vehicle-treated control group set to zero percent and a testosterone alone-treated control group set to 100%.
A test compound was said to be “active” if the non weight adjusted prostate weight was ≦60 mg or ≧84 mg.

Row | Compound | % Inhibition @ 3 μM [1] | active / inactive by non weight adjusted prostate weight [2] | inhibition at 3 µM [1]
1 | COC(=O)C1(C)CN(c2ccc(C#N)c(C(F)(F)F)c2)C(=O)N1 (racemic) [Compound 4e] | 27% | active | –
2 | COc1ccc(N2CC(C)(C(=O)O)NC2=O)cc1 (racemic) [Compound 5c] | −11% | inactive | –
3 | CC1(C(=O)O)CN(c2ccc(Cl)c(C(F)(F)F)c2)C(=O)N1 (racemic) [Compound 5d] | −26% | inactive | –
4 | CC1(C(=O)Nc2ccc(C#N)c(C(F)(F)F)c2)CN(c2ccc(F)cc2)C(=O)N1 (centres unmarked) [Compound 6a, 1-(4-Fluoro-phenyl)-4-methyl-2-oxo-imidazolidine-4-carboxylic acid (4-cyano-3-trifluoromethyl-phenyl)-amide] | – | active | 43%
5 | COc1ccc(N2CC(C)(C(=O)Nc3ccc(C#N)c(C(F)(F)F)c3)NC2=O)cc1 (racemic) [Compound 6c] | 24% | inactive | –
6 | CC1(C(=O)O)CN(c2ccccc2)C(=O)N1 (racemic) [Compound 5b] | 15% | inactive | –
7 | COC(=O)C1(C)CN(c2ccc(OC)cc2)C(=O)N1 (racemic) [Compound 4c] | −8% | inactive | –
8 | CC1(C(=O)Nc2ccc([N+](=O)[O-])c(C(F)(F)F)c2)CN(c2ccccc2)C(=O)N1 (racemic) [Compound 6e] | 37% | inactive | –
9 | CC1(C(=O)Nc2ccc(C#N)c(C(F)(F)F)c2)CN(c2ccccc2)C(=O)N1 (racemic) [Compound 6d] | 40% | inactive | –
10 | COC(=O)C1(C)CN(c2ccccc2)C(=O)N1 (racemic) [Compound 4b] | 16% | active | –
11 | CC1(C(=O)Nc2cccc(C(F)(F)F)c2)CN(c2ccc(F)cc2)C(=O)N1 (racemic) [Compound 6g] | −40% | inactive | –
12 | CC1(C(=O)O)CN(c2ccc(F)cc2)C(=O)N1 (centres unmarked) [Compound 5a, 1-(4-Fluoro-phenyl)-4-methyl-2-oxo-imidazolidine-4-carboxylic acid] | – | inactive | -14%
13 | CC1(C(=O)Nc2ccccc2)CN(c2ccccc2)C(=O)N1 (racemic) [Compound 6b] | 22% | inactive | –
14 | COC(=O)C1(C)CN(c2ccc(Cl)c(C(F)(F)F)c2)C(=O)N1 (racemic) [Compound 4d] | −30% | inactive | –
15 | CC1(C(=O)Nc2ccc(C(F)(F)F)nc2)CN(c2ccccc2)C(=O)N1 (racemic) [Compound 6j] | 18% | inactive | –
16 | CC1(C(=O)Nc2cc(C(F)(F)F)cc(C(F)(F)F)c2)CN(c2ccc(F)cc2)C(=O)N1 (racemic) [Compound 6h] | 76% | active | –
